Measurements published in patent publication US7183322B2, “Remedy for hypertension” (Taisho Pharmaceutical Co., Ltd., priority 2002, dated 2007).
pIC50: −log10 of the molar value.

Assays:
[1] = test system: Brain microsomal Na+/Ca2+ exchanger; experiment: Brain microsomal Na+/Ca2+ exchanger (Na-dependent 45Ca uptake); format: biochemical; settings: rat brain microsomes; read-out: Inhibitory activity against Na+/Ca2+ exchange (Na-dependent 45Ca uptake), IC50 value, Brain
Protocol: Method of Measuring for Brain Microsomal Na^+/Ca^2+ Exchanger
Brain microsomes (1.5 mg/ml) obtained from 8-week-old rats were pre-treated with 160 mM NaCl-containing buffer to cause Na loading into membrane vesicles. This suspension was diluted 50-fold with 20 μM ^45CaCl2-containing buffer to induce ^45Ca uptake, followed by dilution with the buffer (0° C.) to stop the reaction. The membrane vesicles were immediately collected on a nitrocellulose filter. Subsequently, ^45Ca trapped inside the membrane vesicles was determined by liquid scintillation counting. The above assay for Na^+/Ca^2+ exchange activity in brain microsomes was performed according to the procedures described in J. Biol. Chem., vol. 257, p. 5111 (1982).

[2] = biological target: renal cortex-derived Na+/Ca2+ exchanger (NCX1) (Rattus norvegicus, UniProt Q01728); experiment: Rat renal cortex-derived BLMVs Na+/Ca2+ exchange activity (Na-dependent 45Ca uptake); format: biochemical; settings: read-out: Inhibitory activity against Na+/Ca2+ exchange (Na-dependent 45Ca uptake), IC50 value, Renal cortex
Protocol: BLMVs were prepared from rat renal cortex and assayed for Na^+/Ca^2+ exchange activity according to the procedures described in Am. J. Physiol., vol. 266, p. F785 (1994). After being excised from rats, the kidneys were placed in ice-cold sucrose buffer ([…], 0.1 mM PMSF, 10 mM Tris-HCl (pH 7.6)) and decapsulated. The isolated cortex was then finely minced in the sucrose buffer and homogenized sequentially with a Dounce-type homogenizer and a Polytron-type homogenizer, followed by centrifugation at 2500 g for 15 minutes to collect the supernatant. Centrifugation was repeated at 24000 g for 20 minutes to collect the white fluffy portion of the pellet. After further addition of the sucrose buffer, the collected fraction was homogenized with a Dounce-type homogenizer, supplemented with Percoll and then centrifuged at 30000 g for 35 minutes to collect the middle layer. After addition of buffer (100 mM KCl, 100 mM mannitol, 5 mM HEPES-Tris (pH 7.4)), centrifugation was carried out at 34000 g for 30 minutes to collect the loose white pellet (BLMVs). […] Subsequently, the filter was washed twice with 2 ml stop solution and then the amount of ^45Ca trapped inside the BLMVs was determined by using liquid scintillation method.

[3] = biological target: T1, Canine cardiac sarcolemmal vesicle Na+/Ca2+ exchanger (Canis lupus familiaris, UniProt P23685); experiment: Canine cardiac sarcolemmal vesicle Na+/Ca2+ exchanger (Na-dependent 45Ca uptake); format: biochemical; settings: canine cardiac sarcolemmal vesicles; read-out: Inhibitory activity against Na+/Ca2+ exchange (Na-dependent 45Ca uptake), IC50 value, Cardiac sarcolemma
T1 construct: Canine cardiac sarcolemmal vesicles (0.5 mg/ml) were prepared by centrifugal fractionation; from tissue; host or cells: canine cardiac sarcolemmal vesicles
Protocol: Method of Measuring for Canine Cardiac Sarcolemmal Vesicle Na^+/Ca^2+ Exchanger
Canine cardiac sarcolemmal vesicles (0.5 mg/ml) were prepared by centrifugal fractionation as described in Methods enzymology, vol. 157, p. 85 (1988) and suspended in Solution A (20 mM MOPS-Tris (pH 7.4), 160 mM NaCl or KCl), followed by incubation at room temperature for about one hour to cause Na or K loading into the vesicles. This suspension was diluted 50-fold with 20 μM ^45CaCl2-containing buffer to induce ^45Ca uptake, followed by dilution with the buffer (0° C.) to stop the reaction. The membrane vesicles were immediately collected on a nitrocellulose filter. Subsequently, ^45Ca trapped inside the membrane vesicles was determined by liquid scintillation counting. The Na^+/Ca^2+ exchange activity was evaluated by subtracting the value obtained for K loading from the value obtained for Na loading. The above assay for Na^+/Ca^2+ exchange activity in canine cardiac sarcolemmal vesicles was performed according to the procedures described in J. Biol. Chem., vol. 257, p. 5111 (1982).

[4] = test system: Dahl salt-sensitive hypertension rats; experiment: Dahl salt-sensitive hypertension rat model, systolic blood pressure; format: in vivo; settings: for % change in blood pressure: one hour after administration, systolic
Excerpt: (Creation of Dahl Salt-sensitive Hypertension Rat Model)
Dahl salt-sensitive hypertension rats (7 weeks old) were used in the experiment. They were fed a 4% NaCl high-salt chow (0.6% for normal chow), but were allowed to drink water without any restriction. At two weeks after high-salt loading, the animals confirmed to develop hypertension were divided into the following 4 groups for use in the experiment.
(Experimental Animal Groups)
After loading the high-salt chow for two weeks as described above, an acute experiment was performed. On the day of the experiment, the systolic blood pressure (before administration) was measured for each animal under non-anesthesia conditions using a noninvasive sphygmomanometer. The animals were then administered orally with the solvent or SEA0400(3, 10, or 30 mg/kg) and monitored over time for their systolic blood pressure.

pIC50 [1]	pIC50 [2]	pIC50 [3]	Compound	% change in blood pressure ([4]; 3 mg/kg oral) [%]	Reduction in blood pressure compared with the solvent group ([4]; 10 mg/kg and 30 mg/kg groups, oral)	% change in blood pressure ([4]; 10 mg/kg oral) [%]	% change in blood pressure ([4]; 30 mg/kg oral) [%]
4.96	5.17	5.15	N=C(N)SCCc1ccc(OCc2ccc([N+](=O)[O-])cc2)cc1 [K-BR7943, 2-[2-[4-[nitrobenzyloxy]phenyl]ethyl]isothio-ureamethanesulfonate]				
6.70			CCOc1ccc(Oc2ccc(OCc3cc(F)ccc3F)cc2)c(N)c1 [SEA0400, 2-[4-[(2,5-difluorophenyl)methoxy]phenoxy]-5-ethoxyaniline]	−9.5±1.8	significant reduction in blood pressure	−12.0±0.9	−12.7±3.4
